From patent US5985909A, “Cyclopropylindoles and their seco precursors, and their use as prodrugs” (Cancer Research Campaign Technology Limited, priority 1995, dated 1999)

Assays:
[1] = system: human tumours; details: background statement; cited from earlier work
[2] = system: UV4 cells; assay: Activation of prodrug by E. coli nitroreductase: IC50 in UV4 cells without and with purified enzyme and NADH; assay type: cell-based, Chinese hamster; details: for IC50: 18 hours; for fold activation by the enzyme: ratio of IC50 without to IC50 with E. coli nitroreductase, 1080 min
Description: (§1) The compounds of Examples 1 and 3 show potent cytotoxicity to mammalian tumour cells, and are thus of interest as anticancer drugs. […] For these evaluations, AA8 and UV4 cells were maintained in exponential phase growth (doubling times 14 and 15 h respectively) using Alpha MEM containing fetal calf serum (10% v/v) without antibiotics, and were subcultured twice weekly by trypsinization. Bulk cultures were prepared for experiments by seeding cells in spinner flasks at 10^4 cells/mL in the above medium with addition of penicillin (100 IU/mL) and streptomycin (100 μg/mL). Cultures were initiated in 96-well microtiter trays to give 200 (AA8) or 300 (UV4) cells in 0.05 mL per well. After growth in a CO2 incubator for 24 h, drugs were added in culture medium, using serial two-fold dilutions to provide duplicate cultures at five different concentrations for each of eight drugs (plus eight controls) per tray. After 18 h drugs were removed by washing cultures three times with fresh medium, and the trays were incubated for a further 78 h. Cell density was then determined by staining with methylene blue as described [Finlay, G. J.; Baguley, B. C; Wilson, W. R. Anal. Biochem., 1984, 139, 272-277]. The IC50 was calculated as the drug concentration providing 50% inhibition of growth relative to the controls.
The compound was incubated with UV4 cells for 18 hours in 96-well plates under aerobic conditions. The UV4 cell line is a mutant Chinese hamster ovary fibroblast lines derived from the wild-type AA8. It is a UV complementation group 1 mutant, with a defect in the incision step of excision repair [Thompson, L. H. et al Proc. Natl. Acad. Sci (USA), 1980, 78, 3734; Thompson, L. H.; Carrono, A. V. In Cellular responses to DNA Damage, UCLA Symposium on Molecular and Cellular Biology, New Series, Vol. 11 (Freidberg, E. C.; Bridges, B. R.; Eds), Alan R. Liss: New York, 1983: p 125], and is highly sensitive to agents which form bulky DNA monoadducts or crosslinks [Hoy, C.A . et al Cancer Res., 1985, 45, 1737-1747].
The experiment was repeated but in addition purified E. coli nitroreductase enzyme (1 μg/mL) and NADH (1 mM, as cofactor) was added during the entire time of the incubation. […] This represents a 26-fold activation by the enzyme.

[3] = background statement, test system not given; cited from earlier work
[4] = system: AA8 cells; assay: Growth inhibition (cytotoxicity) in AA8 cells, 18 h drug exposure, methylene blue staining; assay type: cell-based, Chinese hamster; details: Cricetulus griseus, CHO-AA8, 18 h exposure then 78 h growth, 50% inhibition of growth relative to controls
Description: as §1

[5] = system: UV4 cells; assay: Growth inhibition (cytotoxicity) in UV4 cells, 18 h drug exposure, methylene blue staining; assay type: cell-based, Chinese hamster; details: Cricetulus griseus, 18 h exposure then 78 h growth (Example 9), read-out: IC50 against UV4 cells
Description: as §1, with “controls. […]” for “controls.”

Compound | anticancer activity against a range of human tumours [1] | fold activation by the enzyme [2] | IC50 [4] | IC50 [5] | further results
CCN(CC)c1ccc2cc(C(=O)Nc3ccc4[nH]c(C(=O)N5C[C@@H](CCl)c6c5cc(OC(=O)Nc5ccccc5)c5[nH]cc(C)c65)cc4c3)oc2c1 [carzelesin] | show anticancer activity against a range of human tumours |  |  |  | 
COc1cc2cc(C(=O)N3CC(CCl)c4ccc([N+](=O)[O-])cc43)[nH]c2c(OC)c1OC (stereo not shown) [example 1(h), 3-(Chloromethyl)-6-nitro-1-[(5',6',7'-trimethoxyindol-2'-yl)carbonyl]indoline] |  | 400 fold |  |  | IC50 ([2]; aerobic conditions, no enzyme (Example 10), read-out: IC50 in UV4 cells in the absence of E. coli nitroreductase): 2.34 µM; IC50 ([2]; aerobic, purified E. coli nitroreductase 1 μg/mL and NADH 1 mM during the entire incubation, read-out: IC50 in UV4 cells in the presence of E. coli nitroreductase): 0.006 µM
COC(=O)c1c(C)[nH]c2c(OC(=O)N3CCN(C)CC3)cc3c(c12)[C@H](CBr)CN3C(=O)c1cc2cc(OC)c(OC)c(OC)c2[nH]1 [KW-2189] | show anticancer activity against a range of human tumours |  |  |  | 
COc1c(O)c2c(c3cc(C(=O)N4CCc5c4c(O)c(OC)c4[nH]c(C(=O)N6CC7CC78C6=CC(=O)c6[nH]cc(C)c68)cc54)[nH]c13)CCN2C(N)=O (stereo not shown) [CC-1065] |  |  |  |  | IC50 [3]: low pM range
COc1cc2cc(C(=O)N3CC(CCl)c4ccc(NC(=O)OCc5ccc([N+](=O)[O-])cc5)cc43)[nH]c2c(OC)c1OC (stereo not shown) [Example 3, 3-(Chloromethyl)-6-[(4"-nitrobenzyloxycarbonyl)amino]-1-[(5',6',7'-trimethoxyindol-2'-yl)carbonyl]indoline] |  | 26 fold | 23 µM | 19.6 µM | IC50 ([2]; Cricetulus griseus, aerobic conditions, no enzyme (Example 10), read-out: IC50 in UV4 cells in the absence of E. coli nitroreductase): 11.9 µM; IC50 ([2]; Cricetulus griseus, aerobic, purified E. coli nitroreductase 1 μg/mL and NADH 1 mM during the entire incubation, read-out: IC50 in UV4 cells in the presence of E. coli nitroreductase): 0.46 µM
COc1cc2cc(C(=O)N3CC(CCl)c4ccc(N)cc43)[nH]c2c(OC)c1OC (stereo not shown) [Example 1, 6-Amino-3-(chloromethyl)-1-[(5',6',7'-trimethoxyindol-2'-yl)carbonyl]indoline] |  |  | 0.32 µM | 0.059 µM | 
